This note sets out measurements from paper PMC6934184, “Selective DNA-PKcs inhibition extends the therapeutic index of localized radiotherapy and chemotherapy” (The Journal of Clinical Investigation, 2019).

SMILES strings stand for the structures.

In the experiment the test system is Huh7 cells. The experiment is described as follows: Huh7 cells with single doxorubicin-loaded DC M1 bead (SRB cell density, γH2AX Western). It is filed as cell-based, Human. How it is done: Exponentially growing HAP-1 DNA-PK proficient or deficient cells were seeded into 6-well plates and allowed to re-attach. Cells were then incubated with vehicle (DMSO) or NU5455 (5 µM) 1 hour prior to irradiation and for a further 24 hours post-irradiation. Cells were then washed in PBS and incubated in drug-free medium to allow for colony formation.
To quantify the number of proliferating versus confluent cells, cells were pulsed with 5-ethynyl-2’-deoxyuridine (EdU), and labeled using the Click-iT Plus EdU Alexa Fluor 647 Flow Cytometry Assay Kit together with FxCycle Violet Stain to label DNA (both Thermo Fisher) following the manufacturer’s instructions. Samples of cells taken from tho se used in the clonogenic assay were used to confirm the percentage of cells in each cell cycle phase.
Samples were acquired on a Symphony A5 flow cytometer (Becton Dickinson, UK).
Cell cycle phase status was also confirmed by microscopy, using cells grown on coverslips i n 6-well plates. […] Coverslips were mounted using Prolong Glass with NucBlue (ThermoFisher) and images were acquired on the Leica TCS SP8 confocal fluorescence […]
Treated cells were fixed with 10% (w/v) trichloroacetic acid (Fisher) at 4°C overnight. Cells were stained with sulphorhodamine B (SRB, 0.4% (w/v) in water), and cell density quantified […]
by determining the absorbance at 570 nm of SRB stain dissolved in Tris base (10 mM, pH 10.5) using a spectrophotometer (BMG Labtech). […]
Blood samples were centrifuged at 6700 x g for 3 minutes, the plasma removed and stored at -20°C prior to analysis for drug by HPLC with fluorescence detection. […]
Samples (20 µl) were applied to a 10 x 0.46 cm Genesis C18 4 µm column (Grace Vydac) fitted with an in-line filter. […] Analytes were detected by fluorescence at 390 nm following excitation at 242 nm. Plasma concentrations were determined using linear standard curves (0.01 µM – 10 µM, R2 > 0.98) generated by extracting compounds from […]
Readings were taken every 2 hours for the first 10 hours and then at 24 hour intervals. […]

For the compound `CN(C(=O)CN1CCOCC1)c1ccc2sc3c(-c4cccc5c(=O)cc(N6CC7CCC(C6)O7)oc45)cccc3c2c1` [NU5455], the “inhibition of cell density, single agent” value (96 hours continuous, NU5455 1 μM or a single doxorubicin-loaded bead) is ~ 20%. For the same compound, the “reduction of cell density, combination treatment” value (96 hours, NU5455 1 μM + single doxorubicin-loaded bead) is listed as 57.7% ± 2.1%. The “γH2AX protein levels (DNA damage induced by released doxorubicin)” value (NU5455 1 μM + doxorubicin-loaded bead, 24–96 hours, Western blotting) was “augment and sustain the DNA damage”.
